Source: PubChem BioAssay (NCI)
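Test compounds were applied to cells in 96-well plates for 48 hours at 5 doses. Definition used: TGI = concentration required for complete inhibition of growth.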

Tests used:
Test in all cases: NCI anticancer screen, dose series, 48 h
EKVX NSCLC = test system: EKVX NSCLC
HCC-2998 colon = test system: HCC-2998 colon
HCT-15 colon = test system: HCT-15 colon
HS 578T breast = test system: HS 578T breast
MDA-MB-231 breast = test system: MDA-MB-231 breast
MOLT-4 leukemia = test system: MOLT-4 leukemia
NCI-H23 lung = test system: NCI-H23 lung
NCI-H460 lung = test system: NCI-H460 lung
SK-MEL-5 melanoma = test system: SK-MEL-5 melanoma
SNB-75 CNS = test system: SNB-75 CNS
SR leukemia = test system: SR leukemia
T-47D breast = test system: T-47D breast

## CN(Cc1cccc2ccsc12)/N=C\c1ccc(Cl)cc1
EKVX NSCLC
  TGI: > 100 µM
HCC-2998 colon
  TGI: > 100 µM
HCT-15 colon
  TGI: > 100 µM
HS 578T breast
  TGI: > 100 µM
MDA-MB-231 breast
  TGI: > 100 µM
MOLT-4 leukemia
  TGI: > 100 µM
NCI-H23 lung
  TGI: > 100 µM
NCI-H460 lung
  TGI: > 100 µM
SK-MEL-5 melanoma
  TGI: 41.6 µM
SNB-75 CNS
  TGI: > 100 µM
SR leukemia
  TGI: > 100 µM
T-47D breast
  TGI: > 100 µM

## O=c1c2sc3ccccc3sc=2c(=O)c2c(Cl)c(Cl)c(Cl)c(Cl)c12
EKVX NSCLC
  TGI: > 100 µM
HCC-2998 colon
  TGI: > 100 µM
HCT-15 colon
  TGI: > 100 µM
HS 578T breast
  TGI: > 100 µM
MDA-MB-231 breast
  TGI: > 100 µM
MOLT-4 leukemia
  TGI: > 100 µM
NCI-H23 lung
  TGI: > 100 µM
NCI-H460 lung
  TGI: > 100 µM
SK-MEL-5 melanoma
  TGI: > 100 µM
SNB-75 CNS
  TGI: > 100 µM
SR leukemia
  TGI: > 100 µM
T-47D breast
  TGI: > 100 µM

## O=C1CSC(c2cc3cc(Br)ccc3nc2Cl)N1c1ccc(Cl)cc1 (stereo not drawn)
EKVX NSCLC
  TGI: > 100 µM
HCC-2998 colon
  TGI: 41.7 µM
HCT-15 colon
  TGI: 88.8 µM
HS 578T breast
  TGI: > 100 µM
MDA-MB-231 breast
  TGI: > 100 µM
MOLT-4 leukemia
  TGI: 47.9 µM
NCI-H23 lung
  TGI: > 100 µM
NCI-H460 lung
  TGI: 42.1 µM
SK-MEL-5 melanoma
  TGI: 37.9 µM
SNB-75 CNS
  TGI: > 100 µM
SR leukemia
  TGI: 44.8 µM
T-47D breast
  TGI: > 100 µM

## CCOc1ccc(NC(=O)C(=O)C(/C(=N/N)C(=O)OC)c2nc3ccc([N+](=O)[O-])cc3[nH]c2=O)cc1 (stereo not drawn)
EKVX NSCLC
  TGI: > 100 µM
HCC-2998 colon
  TGI: > 100 µM
HCT-15 colon
  TGI: > 100 µM
HS 578T breast
  TGI: > 100 µM
MDA-MB-231 breast
  TGI: > 100 µM
MOLT-4 leukemia
  TGI: > 100 µM
NCI-H23 lung
  TGI: > 100 µM
NCI-H460 lung
  TGI: > 100 µM
SK-MEL-5 melanoma
  TGI: > 100 µM
SNB-75 CNS
  TGI: > 100 µM
SR leukemia
  TGI: > 100 µM
T-47D breast
  TGI: > 100 µM

## CCc1nc(N)nc(N)c1-c1ccc(N2CCOCC2)c(N=[N+]=[N-])c1
EKVX NSCLC
  TGI: > 100 µM
HCC-2998 colon
  TGI: > 100 µM
HCT-15 colon
  TGI: > 100 µM
HS 578T breast
  TGI: > 100 µM
MDA-MB-231 breast
  TGI: > 100 µM
MOLT-4 leukemia
  TGI: > 100 µM
NCI-H23 lung
  TGI: > 83.7 µM
NCI-H460 lung
  TGI: > 100 µM
SK-MEL-5 melanoma
  TGI: > 100 µM
SNB-75 CNS
  TGI: > 100 µM
SR leukemia
  TGI: > 80.9 µM
T-47D breast
  TGI: > 100 µM

## O=C(OC1OC2COC(=O)c3cc(O)c(O)c(O)c3-c3c(cc(O)c(O)c3O)C(=O)OC3C2OC(=O)[C@@]24CC(=O)[C@@](O)(OC25C(=O)O[C@H]2[C@@H](O)CO[C@@]25O)C2(O)Oc5c(O)c(O)cc(c5C24)C(=O)OC13)c1cc(O)c(O)c(O)c1 (stereo partly drawn)
EKVX NSCLC
  TGI: > 100 µM
HCC-2998 colon
  TGI: > 100 µM
HCT-15 colon
  TGI: > 100 µM
HS 578T breast
  TGI: > 100 µM
MDA-MB-231 breast
  TGI: 18.5 µM
MOLT-4 leukemia
  TGI: > 100 µM
NCI-H23 lung
  TGI: > 100 µM
NCI-H460 lung
  TGI: > 100 µM
SK-MEL-5 melanoma
  TGI: > 100 µM
SNB-75 CNS
  TGI: > 100 µM
SR leukemia
  TGI: 94.6 µM
T-47D breast
  TGI: > 100 µM

## CS(=O)(=O)CCC1CCC(=O)O1 (stereo not drawn)
EKVX NSCLC
  TGI: > 100 µM
HCC-2998 colon
  TGI: > 100 µM
HCT-15 colon
  TGI: > 100 µM
HS 578T breast
  TGI: > 100 µM
MDA-MB-231 breast
  TGI: > 100 µM
MOLT-4 leukemia
  TGI: > 100 µM
NCI-H23 lung
  TGI: > 100 µM
NCI-H460 lung
  TGI: > 100 µM
SK-MEL-5 melanoma
  TGI: > 100 µM
SNB-75 CNS
  TGI: > 100 µM
SR leukemia
  TGI: > 100 µM
T-47D breast
  TGI: > 100 µM

## O=C(Nc1ccc(Cl)cc1Cl)C1C(=O)OC2(CCCCC2)OC1=O
EKVX NSCLC
  TGI: 32.3 µM
HCC-2998 colon
  TGI: 29.3 µM
HCT-15 colon
  TGI: 29.4 µM
HS 578T breast
  TGI: 64.9 µM
MDA-MB-231 breast
  TGI: 33 µM
MOLT-4 leukemia
  TGI: 26.9 µM
NCI-H23 lung
  TGI: 19.1 µM
NCI-H460 lung
  TGI: 27.4 µM
SK-MEL-5 melanoma
  TGI: 22.1 µM
SNB-75 CNS
  TGI: 29.2 µM
SR leukemia
  TGI: 64.1 µM
T-47D breast
  TGI: 62.2 µM

## O=C1C(Cl)=CC2(C=C1Cl)CCN=c1c(O)c3c(c(O)c12)=NC=N3
EKVX NSCLC
  TGI: > 100 µM
HCC-2998 colon
  TGI: > 100 µM
HCT-15 colon
  TGI: > 100 µM
HS 578T breast
  TGI: > 100 µM
MDA-MB-231 breast
  TGI: > 100 µM
MOLT-4 leukemia
  TGI: > 100 µM
NCI-H23 lung
  TGI: 82.5 µM
NCI-H460 lung
  TGI: > 100 µM
SK-MEL-5 melanoma
  TGI: 30.8 µM
SNB-75 CNS
  TGI: > 100 µM
SR leukemia
  TGI: 36.5 µM
T-47D breast
  TGI: > 100 µM
